Read-outs that look alike come from different tables or passages of the source.

For series [1], the system named is osteoblast. Description: Effect on bone formation (osteoblast nodule mineralization, Alizarin red S). Type of series: cell-based, ICR mice. Conditions: calvarial osteoblast in osteogenic differentiation medium. On the procedure:
The osteoblast, treated in this experiment, was prepared from the osteoblast as prepared in the above.
The osteoblast, isolated from sequential enzymatic treatment of calvariae from neonated ICR mice, was cultured in α-MEM medium containing 10% FBS for 4˜5 days. The osteoblast was also cultured for 24 hr after seeding the cells on a 12 well plate (10^5 cell/well), and medium was exchanged with the osteogenic differentiation medium containing 10 mM β-glycerophosphate and 50 μg/ml ascorbic acid.
The test substances at the concentration of 0.1 uM and 0.1 nM were added to the above medium for evaluating the effect promoting bone formation. The differentiation medium containing the test substances was exchanged every 3 or 4 days for 14 to 21 days until confirming the nodule mineralization.
The cell was rinsed twice with distilled water, and fixed by the 10% formalin solutions for 30 minutes. Alizarin red S and Von-kossa Solution were treated on the plate for measuring deposited calcium and phosphate in cell matrix, and the activity of the test substances on the bone formation was analyzed by determining stained area.
Additionally, for the purpose of estimating quantitative Arizarin red S in cell matrix, stained Arizarin red S was extracted by treating 10 mM sodium phosphate solution (pH 7.0), containing 10% cetylpyridinium chloride, for 15˜30 minutes in the shaking incubator, and then the amount of the deposited calcium was estimated by calculating the absorbance of the extracted Arizarin red S at 564 nm. […]

The test system of series [2] is osteoclast differentiation. Description: Inhibitory effects on osteoclast differentiation (co-culture of bone marrow cells with osteoblast, TRAP staining). In kind it is cell-based, mice. To be noted: for inhibition at 1 µM: Mus musculus, Osteoclast, 168 h, read-out: % inhibitory activity on osteoclastogenesis. In short, it runs like this:
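Bone marrow cells from 6–8-week male ddY mice co-cultured with neonatal ICR mouse calvarial osteoblasts in α-MEM/FBS with dexamethasone (10^−7M) and vitamin D3 (10^−8M) for 7 days, compound and medium renewed every 2–3 days. TRAP-positive cells with ≥3 nuclei counted; inhibition given as percent of control.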

Series [3] concerns cells. Description: Cytotoxicity test (MTT). Type of series: cell-based. To be noted: 10^−6M, 72 hrs, compared with the control group. In short, it runs like this: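 Benzamidine derivatives were checked for cytotoxicity with an MTT assay. Test substances were diluted in a suitable solvent to 10^−2M. Cells were seeded at 1×10^4 cell/100 μL per well in 96-well microplates and grown for 72 hrs. During the final 4 hrs, 25 μL of MTT (2 mg/mL in PBS) was added. Plates were then centrifuged, the medium removed, formazan dissolved in 100 μL DMSO, and absorbance read at 540 nm.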

The subject of series [4] is ovariectomized ddY mouse. Description: Therapeutic effect in the ovariectomized osteoporetic mouse model (trabecular bone volume of the femur). In kind it is in vivo, ddY mice. To be noted: 50 mg/kg/day oral gavage for 4 weeks from 4 weeks after ovariectomy, salts (methansulfonic acid or HCl); for change in vivo at 50 mg/kg: Mus musculus, 672 h, read-out: Changes on TBV (% changes vs vehicle control). The method, then:
The therapeutic effects of each benzamidine derivates were evaluated on the ovariectomized ddY mouse. Benzamidine derivates were dosed from 4 weeks after operation for 4 weeks and the changes on the trabecular bone volume (TBV) of the femur were observed via histomorphometry.
Female ddY mice (6-wk old upon receipt, SLC, Japan) were used after acclimatization for 7 days. Animals were allocated 5 per polycarbonate cage in a temperature (20-25° C.) and humidity (30-35%) controlled room. Light:dark cycle was 12 hr:12 hr and feed (Samyang, Korea) and water were supplied free to access.
Salts of benzamidine derivates (Methansulfonic acid or HCl) were used for the test substances of this invention. Test substances are dissolved and/or suspended in injectable distilled water and administered at a dosage volume of 10 ml/kg by oral gavage. All test substances are dosed from 4 weeks after operation for 4 weeks at 50 mg/kg/day.
To induce estrogen-deficient osteoporosis, bilateral ovaries are removed and then closed by routine methods. Operation was conduct under Ketamine hydrochloride and xylazine hydrochloride anesthesia.
The left femur of each mouse were separated at sacrifice, and fixed in 10% neutral buffered formalin (NBF), then decalcified in decalcifying solution (24.4% formic acid, and 0.5N sodium hydroxide) for 5 days (mixed decalcifying solution was exchanges once a day for 5 days). After the dexalcification, the femur was embedded in paraffin, sectioned (3˜4 μm) and stained with hematoxylin-eosin stain.
TBV was calculated using automated image analysis (analySIS Image Processing; SIS, Germany) under magnification of ×200 in the uniform area of trochlea epiphyseal regions (growth plate regions were excluded) of prepared histological specimens. TBV was calculated as percentage (%) levels.
The changes of TBV compared to that of vehicle control are calculated as following Equation 1 to help the understanding of the efficacy of test substances. Percentage changes=[((TBV of a−TBV of b)/TBV of b)×100] Equation 1

Setting [5] is: 1 μm, co-culture of bone marrow cells and osteoblast, 7 days, TRAP-positive osteoclasts versus controls.
[6] abbreviates: 1 m, co-culture of bone marrow cells and osteoblast, 7 days, TRAP-positive osteoclasts versus controls.

By melting point is commonly meant the temperature, or range, at which the solid turns liquid. The compound `N=C(NO)c1ccc(OCCCCCOc2ccc(-c3csc(-c4cccnc4)n3)cc2)cc1` [Example 7, N-hydroxy-4-(5-[4-(2-pyridin-3-yl-1,3-thiazol-4-yl)phenoxy]pentoxy)-benzamidine] gave a melting point of 149 to 154 °C. Moreover, the “bone forming activity (%)” value in series [1] (0.1 nM) was found to be 1.24%. Further, in series [1] (0.1 μM), the “bone forming activity (%)” value was 9.61%. Besides, the inhibition at 1 µM in series [2] (setting [5]) worked out at 94.5%.

As to `CCCCCc1nc(-c2ccc(OCCCCCOc3ccc(C(=N)NO)cc3)cc2)cs1` [Example 9, N-hydroxy-4-(5-[4-(2-pentyl-1,3-thiazol-4-yl)phenoxy]pentoxy)-benzamidine], the “bone forming activity (%)” value in series [1] (0.1 nM) is on record as 6.14%; in series [1] (0.1 μM), 13.68%. Further, the inhibition at 1 µM in series [2] worked out at 100%.

As for `Cc1sc(C2CCCCC2)nc1-c1ccc(OCCCCCOc2ccc(C(=N)NO)cc2)cc1` [Example 14, N-hydroxy-4-(5-[4-(2-cyclohexyl-5-methyl-1,3-thiazol-4-yl)phenoxy]pentoxy)-benzamidine], the “bone forming activity (%)” value in series [1] (0.1 nM) is listed as 10.56%; in series [1] (0.1 μM), 12.06%. Also, the inhibition at 1 µM in series [2] (setting [5]) amounted to 89.2%.

As to `CCCCCc1nc(-c2ccc(OCCCCCOc3ccc(C(=N)NO)cc3)cc2)c(C)s1` [Example 15, N-hydroxy-4-(5-[4-(5-methyl-2-pentyl-1,3-thiazol-4-yl)phenoxy]pentoxy)-benzamidine], the melting point lay within 81 to 89 °C. Moreover, the “Survival rates of the cells” value in series [3] (MC3T3-E1 cells) turned out to be 81.8%. For the same compound, in series [3] (ST2 cells), the “Survival rates of the cells” value is 42.3%. In addition, in series [2], the inhibition at 1 µM worked out at 68.3%.

Compound `CCc1sc(-c2cccnc2)nc1-c1ccc(OCCCCCOc2ccc(C(=N)NO)cc2)cc1` [Example 21, N-hydroxy-4-(5-[4-(5-ethyl-2-pyridin-3-yl-1,3-thiazol-4-yl)phenoxy]pentoxy)-benzamidine] gave a melting point of 146 to 153 °C. Also, in series [4], the change in vivo at 50 mg/kg amounted to 75.5%.

As to `CCc1sc(C2CCCCC2)nc1-c1ccc(OCCCCCOc2ccc(C(=N)NO)cc2)cc1` [Example 22, N-hydroxy-4-(5-[4-(2-cyclohexyl-5-ethyl-1,3-thiazol-4-yl)phenoxy]pentoxy)-benzamidine], the “bone forming activity (%)” value in series [1] (0.1 nM) amounted to 10.33%; in series [1] (0.1 μM), 8.56%. In addition, the inhibition at 1 µM in series [2] (setting [5]) turned out to be 92.6%.

`CCCCCc1nc(-c2ccc(OCCCCCOc3ccc(C(=N)NO)cc3)cc2)c(CC)s1` [Example 23, N-hydroxy-4-(5-[4-(5-ethyl-2-pentyl-1,3-thiazol-4-yl)phenoxy]pentoxy)-benzamidine]: the melting point is 79 to 88 °C. Further, in series [4], the change in vivo at 50 mg/kg was 28%. The inhibition at 1 µM in series [2] amounted to 47.7%.

Compound `N=C(NO)c1ccc(OCCCCCOc2ccc(-c3nc(-c4cccnc4)sc3Cc3ccccc3)cc2)cc1` [Example 41, N-hydroxy-4-(5-[4-(5-benzyl-2-pyridin-3-yl-1,3-thiazol-4-yl)phenoxy]pentoxy)-benzamidine] showed a melting point of 134 to 143 °C. The “Survival rates of the cells” value in series [3] (MC3T3-E1 cells) is 84.6%. The “Survival rates of the cells” value in series [3] (ST2 cells) turned out to be 48.7%. Also, in series [2] (setting [5]), the inhibition at 1 µM is 64%.

As for `CCNc1nc(-c2ccc(OCCCCCOc3ccc(C(=N)NO)cc3)cc2)c(CC2CCCC2)s1` [Example 110, N-hydroxy-4-(5-[4-(5-cyclopentylmethyl-2-ethylamino-1,3-thiazol-4-yl)phenoxy]pentoxy)-benzamidine], the results for the “bone forming activity (%)” value in series [1] (0.1 nM) and in series [1] (0.1 μM) were 9.76% and 9.37%, respectively. The inhibition at 1 µM in series [2] (setting [6]) is 100%.

Regarding `CCN(CCN1CCOCC1)c1nc(-c2ccc(OCCCCCOc3ccc(C(=N)NO)cc3)cc2)c(C)s1` [Example 124, N-hydroxy-4-(5-[4-(2-(ethyl-1-(2-morpholinoethyl)-amino)-5-methyl-1,3-thiazol-4-yl)phenoxy]pentoxy)-benzamidine], the “bone forming activity (%)” value is recorded as 6.44% in series [1] (0.1 nM) and 12.9% in series [1] (0.1 μM). Also, in series [4], the “Changes on TBV (% changes vs vehicle control)” value came to 72.82%. Further, the “% inhibitory activity on osteoclastogenesis” value in series [2] (co-culture of bone marrow cells and osteoblast, 7 days, TRAP-positive osteoclasts versus controls) is given as 87.9%.

On to `CCc1sc(N(C)CCO)nc1-c1ccc(OCCCCCOc2ccc(C(=N)NO)cc2)cc1` [Example 129, N-hydroxy-4-(5-[4-(5-ethyl-2-((2-hydroxyethyl)-methyl-amino)-1,3-thiazol-4-yl)phenoxy]pentoxy)-benzamidine], for which the “bone forming activity (%)” value was 11.18% in series [1] (0.1 nM) and 11.54% in series [1] (0.1 μM). The inhibition at 1 µM in series [2] (setting [6]) turned out to be 64.7%.
